Results taken from patent US20100144712A1 (priority 2007, published 2010).
In brackets after ≈: the same amount, converted by molar mass.

Legend:
Format in all cases: cell-based
[1] = tested on: Candida albican ATCC 96901; experiment: In vitro antifungal activity (MIC80), Candida albican ATCC 96901; conditions: Candida, ATCC96901; Table 2, ATCC 96901; read-out: Minimal inhibitory concentration (MIC80)
Description: (§1) In vitro antifungal activities of the inventive antifungal compounds were evaluated using test strains including Candida albican (ATCC 90873, 204276, 62342, 64124, 64550, 96901, MYA-573, MYA-574, MYA-575, MYA-576, MYA-1003) and Aspergillus fumigatus (ATCC 16424). Test samples and positive control samples were prepared by dissolving the inventive compounds and comparative compounds, i.e., amphotericin B, fluconazole and itraconazole, in DMSO, respectively, and each successively diluted with medium to obtain test and positive control solutions having test compound concentrations of 0.125 μg/ml to a maximum concentration not generating turbidity. Minimal inhibitory concentration (MIC80) of each compound was determined as the lowest concentration of the test compounds required to reduce growth by 80% relative to a control strain not treated.
(§2) 1) Test strain: Candida albican ATCC 90873, 204276, 62342, 64124, 64550, 96901, MYA-573, MYA-574, MYA-575, MYA-576, MYA-1003, and Aspergillus fumigatus ATCC 16424 were commercially obtained from The American Type Culture Collection (ATCC) and subcultured in CHEMON Co. Ltd. (amphotericin B was commercially purchased from Sigma, and fluconazole and itraconazole were prepared according to methods described in British Patent No. 2,099,818; and U.S. Pat. No. 4,267,179, respectively).
(§3) 2) Medium and culture condition: Candida albican was cultured in Sabourad Dextrose Agar, YM Agar or Potato Dextrose Agar according to ATCC information at a temperature of 37° C., 35° C., 30° C. or 25° C. Aspergillus fumigatus was cultured in Malt Extract Agar or Potato Dextrose Agar at a temperature ranging from 24 to 27° C.
(§4) 3) Preparation of test samples: the inventive compounds and comparative compounds were each diluted with DMSO to obtain 1 to 2 ml of a test sample in a concentration of 100-folds of the determining maximum concentration (256 μg/ml).
(§5) The test samples were each successively diluted with RPMI 1640 to obtain test solutions having concentrations of […] in a 12×75 mm sterilized disposable culture tube. The final concentration of DMSO was adjusted to […] (v/v).
(§6) 5) Preparation of strain solution and inoculation
(§7) Candida albican strains were each subcultured in Sabourad Dextrose Agar, YM Agar or Potato Dextrose Agar medium at 35° C. for 2˜3 days. In the case of yeasts, a single colony was taken from prominent colonies and suspended in 0.85% sterile physiological saline solution and the turbidity of the suspension was adjusted to 80˜82% at 530 nm, and then diluted 50-fold with RPMI 1640 medium to 1.0×10^3˜5.0×10^3 CFU/ml. The turbidity of fungi was adjusted to 80˜82% and the suspension was diluted 50-fold to […]. Aspergillus fumigatus strains were subcultured in Malt Extract Agar for 7˜10 days, and a single colony was taken from prominent colonies and suspended in 0.85% sterile physiological saline solution and the suspension was adjusted to 0.108 at 530 nm, and then diluted 1000-fold with RPMI 1640 medium to 0.4×10^2˜5×10^4 CFU/ml. The turbidity of fungi was adjusted to 80˜82% and the suspension was diluted 50-fold to 0.4102˜0.5104 CFU/ml.
(§8) The strain solutions thus obtained were each seeded into a sterilized 96-well microplate, 0.1 ml of each test solution were added thereto, and […] of alamarblue was treated to each well (Biosource, #DAL1100). This procedure was repeated 2 times.
(§9) Minimal inhibitory concentration (MIC80) of each compound was determined as the lowest concentration of the test compounds required to reduce growth by 80% relative to a control strain not treated.

[2] = tested on: Candida albican ATCC MYA-575; experiment: In vitro antifungal activity (MIC80), Candida albican ATCC MYA-575; conditions: Candida; Table 2, MYA 575; read-out: Minimal inhibitory concentration (MIC80)
Description: as §1, §2, §3, §4, §5, §6, §7, §8, §9

[3] = tested on: Candida albican ATCC MYA-574; experiment: In vitro antifungal activity (MIC80), Candida albican ATCC MYA-574; conditions: Candida; Table 2, MYA 574; read-out: Minimal inhibitory concentration (MIC80)
Description: as §1, §2, §3, §4, §5, §6, §7, §8, §9

[4] = tested on: Candida albican ATCC MYA-573; experiment: In vitro antifungal activity (MIC80), Candida albican ATCC MYA-573; conditions: Candida; Table 2, MYA 573; read-out: Minimal inhibitory concentration (MIC80)
Description: as §1, §2, §3, §4, §5, §6, §7, §8, §9

[5] = tested on: Candida albican ATCC MYA-576; experiment: In vitro antifungal activity (MIC80), Candida albican ATCC MYA-576; conditions: Candida; Table 2, MYA 576; read-out: Minimal inhibitory concentration (MIC80)
Description: as §1, §2, §3, §4, §5, §6, §7, §8, §9

[6] = tested on: Candida albican ATCC 62342; experiment: In vitro antifungal activity (MIC80), Candida albican ATCC 62342; conditions: Candida, ATCC62342; Table 2, 62342; read-out: Minimal inhibitory concentration (MIC80)
Description: as §1, §2, §3, §4, §5, §6, §7, §8, §9

[7] = tested on: Candida albican ATCC 64550; experiment: In vitro antifungal activity (MIC80), Candida albican ATCC 64550; conditions: Candida, ATCC64550; Table 2, 64550; read-out: Minimal inhibitory concentration (MIC80)
Description: as §1, §2, §3, §4, §5, §6, §7, §8, §9

[8] = tested on: Candida albican ATCC 64124; experiment: In vitro antifungal activity (MIC80), Candida albican ATCC 64124; conditions: Candida, ATCC64124; Table 2, 64124; read-out: Minimal inhibitory concentration (MIC80)
Description: as §1, §2, §3, §4, §5, §6, §7, §8, §9

[9] = tested on: Candida albican ATCC MYA-1003; experiment: In vitro antifungal activity (MIC80), Candida albican ATCC MYA-1003; conditions: Candida; Table 2, MYA 1003; read-out: Minimal inhibitory concentration (MIC80)
Description: as §1, §2, §3, §4, §5, §6, §7, §8, §9

[10] = tested on: Candida albican ATCC 90873; experiment: In vitro antifungal activity (MIC80), Candida albican ATCC 90873; conditions: Candida, ATCC90873; Table 2, ATCC 90873; read-out: Minimal inhibitory concentration (MIC80)
Description: as §1, §2, §3, §4, §5, §6, §7, §8, §9

| Compound | MIC80 [1] | MIC80 [2] | MIC80 [3] | MIC80 [4] | MIC80 [5] | MIC80 [6] | MIC80 [7] | MIC80 [8] | MIC80 [9] | MIC80 [10] |
| --- | --- | --- | --- | --- | --- | --- | --- | --- | --- | --- |
| C[C@@H](N1CCN(c2ccc(OCc3ccccc3)nc2)CC1)[C@](O)(Cn1cncn1)c1ccc(F)cc1F [Example 29, (2R,3R)-3-(4-(6-(benzyloxy)pyridin-3-yl)piperazin-1-yl)-2-(2,4-difluorophenyl)-1-(1H-1,2,4-triazol-1-yl)butan-2-ol] | > 128 µg/mL | 0.25 µg/mL (≈ 0.48 µM) | 1 µg/mL (≈ 1.92 µM) | 1 µg/mL (≈ 1.92 µM) | 0.125 µg/mL (≈ 0.24 µM) | 0.5 µg/mL (≈ 0.96 µM) | 1 µg/mL (≈ 1.92 µM) | 4 µg/mL (≈ 7.68 µM) | > 128 µg/mL | 0.125 µg/mL (≈ 0.24 µM) |
| C[C@@H](N1CCN(c2cccc(OC3CCCC3)n2)CC1)[C@](O)(Cn1cncn1)c1ccc(F)cc1F [Example 22, (2R,3R)-3-(4-(6-(cyclopentyloxy)pyridin-2-yl)piperazin-1-yl)-2-(2,4-difluorophenyl)-1-(1H-1,2,4-triazol-1-yl)butan-2-ol] | > 128 µg/mL | 0.5 µg/mL (≈ 1 µM) | > 128 µg/mL | 32 µg/mL (≈ 64.2 µM) | 0.5 µg/mL (≈ 1 µM) | 128 µg/mL (≈ 257 µM) | 64 µg/mL (≈ 128 µM) | > 128 µg/mL | > 128 µg/mL | 0.5 µg/mL (≈ 1 µM) |
| C[C@@H](N1CCN(c2cccc(OCc3ccccc3)n2)CC1)[C@](O)(Cn1cncn1)c1ccc(F)cc1F [Example 20, (2R,3R)-3-(4-(6-(benzyloxy)pyridin-2-yl)piperazin-1-yl)-2-(2,4-difluorophenyl)-1-(1H-1,2,4-triazol-1-yl)butan-2-ol] | 2 µg/mL (≈ 3.84 µM) | 0.25 µg/mL (≈ 0.48 µM) | 1 µg/mL (≈ 1.92 µM) | 0.5 µg/mL (≈ 0.96 µM) | 0.25 µg/mL (≈ 0.48 µM) | 1 µg/mL (≈ 1.92 µM) | 1 µg/mL (≈ 1.92 µM) | 8 µg/mL (≈ 15.4 µM) | > 128 µg/mL | 0.125 µg/mL (≈ 0.24 µM) |
| CCCCOc1cccc(N2CCN([C@H](C)[C@](O)(Cn3cncn3)c3ccc(F)cc3F)CC2)n1 [Example 23, (2R,3R)-3-(4-(6-(butyloxy)pyridin-2-yl)piperazin-1-yl)-2-(2,4-difluorophenyl)-1-(1H-1,2,4-triazol-1-yl)butan-2-ol] | > 128 µg/mL | 0.5 µg/mL (≈ 1.03 µM) | > 128 µg/mL | > 128 µg/mL | 0.5 µg/mL (≈ 1.03 µM) | > 128 µg/mL | > 128 µg/mL | > 128 µg/mL | > 128 µg/mL | 0.25 µg/mL (≈ 0.514 µM) |
| C[C@@H](N1CCN(c2nc3cc(Cl)ccc3o2)CC1)[C@](O)(Cn1cncn1)c1ccc(F)cc1F [Example 5, (2R,3R)-3-(4-(5-chlorobenzooxazol-2-yl)piperazin-1-yl)-2-(2,4-difluorophenyl)-1-(1H-1,2,4-triazol-1-yl)butan-2-ol] | 2 µg/mL (≈ 4.09 µM) | 0.125 µg/mL (≈ 0.256 µM) | 0.5 µg/mL (≈ 1.02 µM) | 0.25 µg/mL (≈ 0.511 µM) | 0.125 µg/mL (≈ 0.256 µM) | 0.125 µg/mL (≈ 0.256 µM) | 0.5 µg/mL (≈ 1.02 µM) | 2 µg/mL (≈ 4.09 µM) | > 128 µg/mL | 0.125 µg/mL (≈ 0.256 µM) |
| CCCCOc1ccc(N2CCN([C@H](C)[C@](O)(Cn3cncn3)c3ccc(F)cc3F)CC2)cn1 [Example 32, (2R,3R)-3-(4-(6-(butyloxy)pyridin-3-yl)piperazin-1-yl)-2-(2,4-difluorophenyl)-1-(1H-1,2,4-triazol-1-yl)butan-2-ol] | 8 µg/mL (≈ 16.4 µM) | 0.5 µg/mL (≈ 1.03 µM) | 4 µg/mL (≈ 8.22 µM) | 1 µg/mL (≈ 2.06 µM) | 0.125 µg/mL (≈ 0.257 µM) | 1 µg/mL (≈ 2.06 µM) | 1 µg/mL (≈ 2.06 µM) | 4 µg/mL (≈ 8.22 µM) | > 128 µg/mL | 0.125 µg/mL (≈ 0.257 µM) |
